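Test compounds were applied to cells in 96-well plates for 48 hours at 5 doses. GI50: concentration for 50% inhibition of growth. Definition used: TGI = concentration required for complete inhibition of growth.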

The TGI is the concentration at which net growth stops. Usually GI50 stands for the concentration giving 50% growth inhibition.

What all share (test): DTP human tumour cell line panel, 48 h
For assay [1], the system named is HOP-62 NSCLC.
The test system of assay [2] is SR leukemia.
In assay [3] the test system is A549 NSCLC.
In assay [4] the test system is SW-620 colon.
Assay [5] deals with SK-MEL-28 melanoma.
The test system of assay [6] is SNB-75 CNS.
In assay [7] the test system is EKVX NSCLC.
For assay [8], the system named is OVCAR-5 ovarian.
Assay [9] concerns U251 CNS.
Assay [10] relates to MDA-MB-231 breast.

On to `CC(C)(C)[Si](C)(C)OCC1OC(n2cnc3c(NC(=O)c4ccccc4)ncnc32)CC1O` (centres undefined), for which the TGI was 35.5 µM in assay [1]; 49.6 µM in assay [2]; above 100 µM in assay [3]; above 100 µM in assay [4]; 87.4 µM in assay [5]; 60.3 µM in assay [6]. In addition, the concentration for total growth inhibition (TGI) was above 100 µM in [7], above 100 µM in assay [8], 51.6 µM in [9] and 55.7 µM in assay [10].
As to `C/C(=N\NC(=O)c1ccncc1)c1ccc2ccccc2c1O`, the TGI in assay [1] was above 72.7 µM; in [2], 32 µM; in assay [3], above 100 µM; in [4] it was above 100 µM; in [5], above 100 µM; in assay [6], above 43.8 µM. For the same compound, the concentration for total growth inhibition (TGI) in [7] is above 100 µM; in [8], above 100 µM; in assay [9] it was above 62.2 µM; in assay [10] it was above 91 µM.
As to `CSc1cnn(CCC#N)c(=O)n1`, the TGI in assay [1], in assay [2], in assay [3], in assay [4], in [5] and in assay [6] was above 100 µM in each case. The TGI in assay [7], in assay [8], in assay [9] and in [10] was above 100 µM each time.
As to `CN(C)c1ccc(C(=C2C=CC(=[N+](C)C)C=C2)c2ccc(N(C)C)cc2)cc1` (tested in a mixture with another compound), the GI50 was 0.0446 µM in assay [1]; 0.0313 µM in [2]; 0.0326 µM in assay [3]; 0.0476 µM in assay [4]; 0.141 µM in [5]; 0.0724 µM in assay [6]. The 50% growth inhibitory concentration (GI50) is 0.0725 µM in assay [7], 0.559 µM in [8] and 0.205 µM in assay [10]. For the same compound, the TGI in assay [1] amounted to 1.29 µM; in assay [2], 0.106 µM; in assay [3], 0.688 µM; in assay [4] it was 1.35 µM; in [5] it was 1.37 µM; in [6] it was 0.54 µM. Also, the TGI in assay [7] was 6.45 µM; in [8] it was 1.77 µM; in assay [9] it was 1.34 µM; in assay [10], 1.03 µM.
As for `CN1CCCNc2c(c(=O)c2=O)NCCCN(C)CCCNc2c(c(=O)c2=O)NCCCN(C)CCCNc2c(c(=O)c2=O)NCCCN(C)CCCNc2c(c(=O)c2=O)NCCCN(C)CCCNc2c(c(=O)c2=O)NCCCN(C)CCCNc2c(c(=O)c2=O)NCCCN(C)CCCNc2c(c(=O)c2=O)NCCC1`, the GI50 in assay [1] is 4.41 µM; in assay [2], 12.1 µM; in assay [3], 6.05 µM; in assay [4] it was 4.63 µM; in [5], 3.7 µM; in assay [6], 9.48 µM. Besides, the GI50 was 5.54 µM in assay [7], 9.32 µM in [8], 2.23 µM in assay [9] and 4.42 µM in assay [10]. The concentration for total growth inhibition (TGI) in assay [1] is 13.8 µM; in assay [2] it was above 50 µM; in assay [3], above 50 µM; in assay [4], 25.3 µM; in [5], 16.2 µM; in assay [6] it was 19.3 µM. The total growth inhibition concentration (TGI) in assay [7] was 15.8 µM; in assay [8], 20.6 µM; in [9], above 50 µM; in assay [10], 19.1 µM.
On to `O=[N+]([O-])c1ccc(-c2nc(-c3ccccc3)c(-c3ccccc3)n2-c2ccccc2)cc1`, for which the GI50 in assay [1] is 5.36 µM; in [2] it was 6.2 µM; in assay [3], 3.01 µM; in assay [4], 2.6 µM; in assay [5], 2.99 µM; in [6] it was 2.64 µM. The GI50 in [7] is 2.93 µM; in [8], 4.7 µM; in [9], 2.74 µM; in assay [10], 2.36 µM. In addition, the TGI in assay [1] is above 86.2 µM; in assay [2], above 100 µM; in assay [3], 12.6 µM; in assay [4], 9.28 µM; in [5], 9.97 µM; in [6], 22 µM. In addition, the TGI in assay [7] was above 26.6 µM; in [8] it was 28.7 µM; in assay [9] it was 10.7 µM; in assay [10] it was 7.04 µM.
Regarding `CC(C)[C@@]12C[C@@H](OC(=O)[C@H]3CO3)[C@@](C)(O1)[C@@H]1CC[C@@H](C)[C@H]1[C@@H]2OC(=O)/C=C/c1ccccc1`, the GI50 in assay [1] is 33.2 µM; in assay [2], 24.7 µM; in assay [3], 16.7 µM; in assay [4], 29.9 µM; in [5] it was 18.7 µM; in assay [6], 2.72 µM. The GI50 in assay [7] was 16.3 µM; in assay [8] it was 20.5 µM; in assay [9] it was 22.9 µM; in assay [10] it was 12.9 µM. The TGI in assay [1] is above 100 µM; in assay [2] it was above 100 µM; in [3], 54.6 µM; in assay [4], above 100 µM; in [5], 57.2 µM; in [6], 29.7 µM. Also, the TGI is above 75.6 µM in [7], 68 µM in assay [8], above 80.6 µM in assay [9] and 38.6 µM in assay [10].
Consider `COc1ccc(NC(=O)n2nc(N)c3ccccc32)cc1OC`, for which the GI50 in [1] is 75.2 µM; in [2], 29.3 µM; in assay [3], 45.8 µM; in assay [4], above 100 µM; in assay [5], above 100 µM; in assay [6] it was 30.6 µM. Moreover, the GI50 in [7] is 54.1 µM; in assay [8] it was 45.5 µM; in [9], 61.7 µM; in assay [10], 53.6 µM. The concentration for total growth inhibition (TGI) in assay [1], in assay [2], in assay [3], in assay [4], in assay [5] and in assay [6] was above 100 µM each time. For the same compound, the TGI in [7], in assay [8], in [9] and in assay [10] was above 100 µM each time.
